Measured values: publication PMC8621770, “New Compounds with Bioisosteric Replacement of Classic Choline Kinase Inhibitors Show Potent Antiplasmodial Activity” (Pharmaceutics, 2021)
Like-named read-outs stand apart in the source and are kept apart here.

Legend:
[1] = test system: P. falciparum strain 3D7; set-up: method as in PMID 27616047, PMID 29880399, PMID 25089811; settings: reference compounds; read-out: IC50 a (In vitro IC50 values against P. falciparum); cited from earlier work
[2] = biological target: T1, PfCK (Plasmodium falciparum, UniProt Q8IM71); settings: read-out: IC50 PfCK b (compound concentration required to inhibit PfCK enzyme by 50%); reference compounds; cited from earlier work
T1 construct: A truncated form of PfCK (Δ79-440) featuring an N-terminal 6× His-tag; 6xHis (N); host or cells: Escherichia coli BL21 (DE3) Star

[3] = biological target: T1, PfCK; assay: Spectrophotometric coupled enzymatic assay for PfCK activity (substrate choline); assay type: biochemical; settings: for remaining activity at 25 µM: read-out: PfCK Fractional Activity at 25 µM
Protocol: A truncated form of PfCK (Δ79-440) featuring an N-terminal 6× His-tag was purchased from Genescript (Piscataway, NJ, USA), cloned into a pET-28a vector and transformed into Escherichia coli BL21 (DE3) Star cells (Invitrogen, Carlsbad, CA, USA). The transformed bacteria were cultured in Luria-Bertani (LB) medium at 37 °C until OD600 = 0.6 and the expression was induced with 1 mM isopropyl β-D-1-thiogalactopyranoside (IPTG). The cell culture was grown overnight at 20 °C and 180 rpm. Cells were pelleted by centrifugation at 10,000 rpm, resuspended in 50 mM Tris/HCl pH 7.5, 500 mM NaCl, 0.2 mM phenylmethylsulphonyl fluoride (PMSF, Sigma Aldrich, St. Luis, MO, USA), DNase (Sigma Aldrich, St. Luis, MO, USA), 0.5 mM β-mercaptoethanol (Sigma Aldrich, St. Luis, MO, USA) and sonicated. Separation of the soluble from the insoluble fraction was obtained by centrifugation at 15,000 rpm and 4 °C. The target enzyme was purified by a two-step purification protocol. In the first step, the cell lysate was incubated for 45 min with Ni-NTA resin (Qiagen, Venlo, The Netherlands) in a gravity column. Then, the column was washed with 40 column volumes (CV) of 50 mM Tris/HCl pH 7.5, 300 mM NaCl, 10 mM imidazole and 1 CV of 50 mM Tris/HCl pH 7.5, 300 mM NaCl, 40 mM imidazole. Finally, the His-tagged enzyme was eluted from the column using a 50 mM Tris/HCl pH 7.5, 300 mM NaCl, 400 mM imidazole buffer. A subsequent size-exclusion chromatography step was implemented to further polish the sample using a HiPrep 26/60 Sephacryl 100 HR column (GE Healthcare, Little Chalfont, Buckinghamshire, UK) previously equilibrated with 20 mM Tris/HCl pH 7.5, 150 mM NaCl buffer. This second purification step afforded a pure protein sample. The protein production yield was estimated to be nearly 2.5 mg of recombinant enzyme per liter of bacterial culture.
A spectrophotometric 96-well plate assay for PfCK activity was established based on an assay previously described. The reaction mix was composed as follows: 100 mM Tris/HCl pH 7.5, 100 mM KCl, 10 mM MgCl2, 0.5 mM phosphoenolpyruvate, 0.25 mM NADH, 4 U of pyruvate kinase, 5 U lactate dehydrogenase, 2 mM ATP, 4 mM choline chloride and different concentrations of the selected compounds. All the necessary compounds for the assay were purchased from Sigma Aldrich (St. Luis, MO, USA) and the final assay volume was 200 μL. The enzymatic reaction was initiated by the addition of the enzyme at less than 10 nM concentration and the reaction rates were measured by monitoring the decrease in the absorbance at 340 nm for 20 min at room temperature using a Spark10M instrument (Tecan). Finally, the IC50 values for each compound were determined by plotting the enzyme fractional activity (f.a.) against the logarithm of compound concentration (log[I]). Curve-fitting was performed with a dose-response curve from Origin (OriginLab Corporation, Northampton, MA, USA), using the following equation: f.a.=1/1+10^logIC50−logI
All data points were collected in triplicate and the final dose-response curves were plotted with MATLAB (R2018a (9.4.0.813654), 2018, MathWorks, Natick, MA, USA). See curves in Figure S1 in Supplementary Materials.

[4] = test system: P. falciparum strain 3D7; assay: Antimalarial activity, P. falciparum lactate dehydrogenase growth inhibition assay; assay type: cell-based, Plasmodium falciparum; settings: Plasmodium falciparum, Erythrocyte; P. falciparum 3D7 in human erythrocytes, 72 h, LDH readout; read-out: IC50 a (In vitro IC50 values against P. falciparum)
Protocol: Parasites of the P. falciparum strain 3D7 were grown in fresh group 0 positive human erythrocytes, obtained from the Centro Regional de Transfusion Sanguínea-SAS (Granada, Spain) and suspended at 5% haematocrit in RPMI 1640 containing 2% human serum, 0.2% NaHCO3, 0.5% Albumax II, 150 μM hypoxanthine, and […] gentamicin. Flasks were incubated at 37 °C, under 5% CO2 and 95% air mixture. […] The stock culture was then diluted with complete medium and non-parasitized erythrocytes to yield a haematocrit of 2% and parasitemia of 0.25%. Stock solutions of the test drugs were prepared at an initial concentration of 200 mM in DMSO, serially diluted and dispensed into triplicate in 96-well plates to yield final concentrations ranging from 0.0039 to 2 μM. The final well volume was 200 μL with a final concentration of DMSO 0.001%. Each plate also included positive growth controls, where only medium were added, and negative growth controls with 100 nM of chloroquine. […] A multidrop dispenser was used to add 50 μL of synchronized parasite culture per well. After 72 h of growth in presence of test compounds, the plates were stored frozen at −20 °C for at least 24 h. Next, they were thawed at room temperature. Parasite growth inhibition assays and IC50 determinations were carried out following the P. falciparum lactate dehydrogenase assay where parasite viability is quantified by measuring LDH activity upon APAD+ addition, a cofactor that is specific to the Plasmodium enzyme. To evaluate LDH activity, 140 μL of freshly made reaction mix, containing 143 mM sodium L-lactate, 143 μM APAD, 178.75 μM NBT, 1 U/mL diaphorase, 0.7% Tween 20 and 100 mM Tris-HCl (pH 8.0) were dispensed into plates. After 10 min of incubation in the dark at room temperature, absorbance was measured at 630 nm with a vmax precision multiwell plate reader from Molecular Devices, by using the accompanying SOFT maxPro software for analysis.

T1 sequence (Q8IM71 entry or part of it): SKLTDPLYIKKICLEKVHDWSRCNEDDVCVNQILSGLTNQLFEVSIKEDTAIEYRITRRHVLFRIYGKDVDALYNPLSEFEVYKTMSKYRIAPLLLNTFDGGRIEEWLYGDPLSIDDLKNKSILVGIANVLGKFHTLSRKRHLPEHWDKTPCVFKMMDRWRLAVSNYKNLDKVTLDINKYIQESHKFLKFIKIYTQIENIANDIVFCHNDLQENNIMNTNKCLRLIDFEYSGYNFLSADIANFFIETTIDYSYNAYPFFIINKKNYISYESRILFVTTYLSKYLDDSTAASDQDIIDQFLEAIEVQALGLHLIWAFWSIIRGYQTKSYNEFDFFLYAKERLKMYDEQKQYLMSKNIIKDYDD

Structure (SMILES) | IC50 [1] | IC50 [2] | remaining activity at 25 µM [3] | melting point | IC50 [4] | IC50 ([3]; IC50 PfCK b (compound concentration required to inhibit PfCK enzyme by 50%), substrate choline 4 mM, ATP 2 mM)
C/[N+](c1ccc(Cl)cc1)=c1\ccn(Cc2ccc(-c3ccc(Cn4cc/c(=[N+](/C)c5ccc(Cl)cc5)c5ccccc54)cc3)cc2)c2ccccc12 [RSM-932A] | 26.5 nM |  |  |  |  | 
Clc1ccc2c(N3CCCCCC3)cc[n+](Cc3ccc(OCCOc4ccc(C[n+]5ccc(N6CCCCCC6)c6ccc(Cl)cc65)cc4)cc3)c2c1 [10k] | 35 ± 4 nM | 10900 ± 124 nM |  |  |  | 
CN(C)c1cc[n+](Cc2ccc(CCCCc3ccc(C[n+]4ccc(N(C)C)cc4)cc3)cc2)cc1 [MN58b] | 3.5 nM |  |  |  |  | 
CN(C)c1cc[n+](Cc2ccc(CCCCc3ccc(C[n+]4ccc(N(C)c5ccc(Cl)cc5)cc4)cc3)cc2)cc1 [BR-33] | 45 ± 3 nM |  |  |  |  | 
[Br-].[Br-].c1cc2c(N3CCCCC3)nc[n+](Cc3ccc(-c4ccc(C[n+]5cnc(N6CCCCC6)c6ccsc65)cn4)nc3)c2s1 [Fg-32, 1,1’-([2,2’-bipyridine]-5,5’-diylbis(methylene))bis(4-(piperidin-1-yl)thieno[2,3-d]pyrimidin-1-ium) bromide] |  |  | 83.8 ± 9.53% | 267 to 269 °C | > 250 nM | 
[Br-].[Br-].c1cc2c(s1)c(N1CCCCC1)nc[n+]2Cc1ccc(CCCCc2ccc(C[n+]3cnc(N4CCCCC4)c4sccc43)cc2)cc1 [Fa-33, 1,1’-((butane-1,4-diylbis(4,1-phenylene))bis(methylene))bis(4-(piperidin-1-yl)thieno[3,2-d]pyrimidin-1-ium) bromide] |  |  | 68.8 ± 6.03% | 276 to 278 °C | 43.9 nM | 
[Br-].[Br-].c1cc2c(s1)c(N1CCCCC1)nc[n+]2Cc1ccc(OCCOc2ccc(C[n+]3cnc(N4CCCCC4)c4sccc43)cc2)cc1 [Fa-28, 1,1′-(((ethane-1,2-diylbis(oxy))bis(4,1-phenylene))bis(methylene))bis(4-(piperidin-1-yl)thieno[3,2-d]pyrimidin-1-ium) bromide] |  |  | 84.4 ± 7.53% | 198 to 200 °C | 47.1 nM | 
[Br-].[Br-].c1cc2c(N3CCCCC3)nc[n+](Cc3ccc(OCCOc4ccc(C[n+]5cnc(N6CCCCC6)c6ccsc65)cc4)cc3)c2s1 [Ff-5, 1,1′-(((ethane-1,2-diylbis(oxy))bis(4,1-phenylene))bis(methylene))bis(4-(piperidin-1-yl)thieno[2,3-d]pyrimidin-1-ium) bromide] |  |  | 91.1 ± 4.27% | > 280 °C | 22.4 nM | 
[Br-].[Br-].c1cc2c(s1)c(N1CCCC1)nc[n+]2Cc1ccc(CCc2ccc(C[n+]3cnc(N4CCCC4)c4sccc43)cc2)cc1 [Fg-16, 1,1’-((ethane-1,2-diylbis(4,1-phenylene))bis(methylene))bis(4-(pyrrolidin-1-yl)thieno[3,2-d]pyrimidin-1-ium) bromide] |  |  | 79.7 ± 10.3% | 231 to 233 °C | 20.6 nM | 26500 ± 2440 nM
[Br-].[Br-].c1cc2c(s1)c(N1CCCCCC1)nc[n+]2Cc1ccc(-c2ccc(C[n+]3cnc(N4CCCCCC4)c4sccc43)cn2)nc1 [Fa-26, 1,1’-([2,2’-bipyridine]-5,5’-diylbis(methylene))bis(4-(azepan-1-yl)thieno[3,2-d]pyrimidin-1-ium) bromide] |  |  | 78 ± 8.13% | 310 to 312 °C | 209 nM | 
[Br-].[Br-].c1cc2c(s1)c(N1CCCCC1)nc[n+]2Cc1ccc(-c2ccc(C[n+]3cnc(N4CCCCC4)c4sccc43)cn2)nc1 [Fa-27, 1,1’-([2,2’-bipyridine]-5,5’-diylbis(methylene))bis(4-(piperidin-1-yl)thieno[3,2-d]pyrimidin-1-ium) bromide] |  |  | 82.6 ± 4.9% | 307 to 309 °C | 120 nM | 
CN(C)c1cc[n+](Cc2ccc(-c3ccc(C[n+]4ccc(N(C)c5ccc(Cl)cc5)cc4)cc3)cc2)cc1 [BR-31] | 7 ± 0.6 nM |  |  |  |  | 
C[N+]1(C)CCOC(O)(c2ccc(-c3ccc(C4(O)C[N+](C)(C)CCO4)cc3)cc2)C1 (centres unmarked) [HC-3] | > 50000 nM |  |  |  |  | 
